Reference: ChEMBL document CHEMBL6127011, “Design, synthesis, and evaluation of benzodioxolane compounds for antitumor activity” (Bioorg Med Chem Lett, 2024)
pIC50: −log10 of the molar value. Calls of active or inactive are those of the source. No cut-off for these calls is given here.

Experiments:
HEK-293T = experiment: (§1) Cytotoxicity against human HEK293T cells by MTT assay; type: toxicity, cell-based; details: hek-293t; for Activity: human
HeLa [1] = experiment: Antiproliferative activity against human HeLa cells by MTT assay; type: functional, cell-based
MDA-MB-231 = experiment: Antiproliferative activity against human MDA-MB-231 cells by MTT assay; type: functional, cell-based
[2] = as §1; type: toxicity, cell-based, HEK-293T; details: human, HEK293T cells
HeLa [3] = experiment: Inhibition of colony formation in human HeLa cells at 10 uM incubated for 24 hrs; type: functional
[4] = Inhibition of tumor angiogenesis in human HeLa cells xenografted in chick embryo chorioallantoic membrane at 2.5 uM incubated for 24 hrs; values are per cent of control
[5] = Inhibition of tumor angiogenesis in human HeLa cells xenografted in chick embryo chorioallantoic membrane at 5 uM incubated for 24 hrs; values are per cent of control
HeLa [6] = experiment: Inhibition of colony formation in human HeLa cells incubated for 24 hrs; type: functional, cell-based; details: dose 2.5-10 µM
HeLa [7] = experiment: Antitumor activity against human HeLa cells xenografted in chicken embryo chorioallantoic membrane assessed as reduction in tumor weight at 10 uM (reference value: 39 +/- 1.41 mg); type: functional
HeLa [8] = experiment: Inhibition of cell migration in human HeLa cells assessed as migration rate at 2.5 uM incubated for 24 hrs by transwell assay; values are per cent of control
[9] = Inhibition of tumor angiogenesis in human HeLa cells xenografted in chick embryo chorioallantoic membrane at 10 uM incubated for 24 hrs; values are per cent of control
HeLa [10] = experiment: Antitumor activity against human HeLa cells xenografted in chicken embryo chorioallantoic membrane assessed as reduction in tumor weight at 5 uM (reference value: 39 +/- 1.41 mg); type: functional
HeLa [11] = experiment: Inhibition of cell migration in human HeLa cells assessed as migration rate at 5 uM incubated for 24 hrs by transwell assay; values are per cent of control
HeLa [12] = experiment: Antitumor activity against human HeLa cells xenografted in chicken embryo chorioallantoic membrane assessed as reduction in tumor weight at 2.5 uM (reference value: 39 +/- 1.41 mg); type: functional
HeLa [13] = experiment: Inhibition of cell adhesion in human HeLa cells at 10 uM; type: functional
HeLa [14] = experiment: Inhibition of cell adhesion in human HeLa cells; type: functional, cell-based
HeLa [15] = experiment: Inhibition of cell migration in human HeLa cells assessed as migration rate at 10 uM incubated for 24 hrs by transwell assay; values are per cent of control

SMILES	pIC50 (HeLa [1])	pIC50 (MDA-MB-231)	pIC50 [2]	also measured
O=C(/C=C/c1ccc2c(c1)OCO2)Nc1cccc2c1CN(C1CCC(=O)NC1=O)C2=O (configuration not stated)	4.43			pIC50 (HEK-293T): 2.84; Activity (MDA-MB-231): inactive
COc1cc2c(cc1OC)C(=O)C(CC1CCN(C(=O)c3ccc4c(c3)OC(F)(F)O4)CC1)C2 (configuration not stated)	4.42	4.09		Activity (HEK-293T): Non-Toxic
Cc1cn(-c2cc(NC(=O)/C=C/c3ccc4c(c3)OCO4)cc(C(F)(F)F)c2)cn1	5.06	4.54	4.73	
O=C(/C=C/C=C/c1ccc2c(c1)OCO2)Nc1cccc2c1CN(C1CCC(=O)NC1=O)C2=O (configuration not stated)	4.30	4.09	4.09	
Cc1cn(-c2cc(NC(=O)/C=C/C=C/c3ccc4c(c3)OCO4)cc(C(F)(F)F)c2)cn1	4.99	4.64	3.98	inhibition at 10 µM (HeLa [3]): 25.1%; angiogenesis (% of control) at 2.5 µM [4]: 93.2%; angiogenesis (% of control) at 5 µM [5]: 78.4%; inhibition (HeLa [6]): Dose-Dependent Effect; Activity (HeLa [7]): 7.5 mg; migration rate (% of control) at 2.5 µM (HeLa [8]): 80.3%; angiogenesis (% of control) at 10 µM [9]: 61.9%; Activity (HeLa [10]): 13.5 mg; migration rate (% of control) at 5 µM (HeLa [11]): 50.4%; Activity (HeLa [12]): 28.5 mg; inhibition at 10 µM (HeLa [13]): 16.7%; inhibition (HeLa [14]): Dose-Dependent Effect; migration rate (% of control) at 10 µM (HeLa [15]): 27.6%
O=c1[nH]cc(F)c(=O)[nH]1 [FLUOROURACIL]	4.35	4.74	5.49	inhibition at 10 µM (HeLa [3]): 52.1%; angiogenesis (% of control) at 10 µM [9]: 78.8%; inhibition at 10 µM (HeLa [13]): 55.8%; migration rate (% of control) at 10 µM (HeLa [15]): 47.3%
Cc1cn(-c2cc(NC(=O)c3ccc4c(c3)OCO4)cc(C(F)(F)F)c2)cn1	4.30	3.59	3.32	
O=C1CCC(N2Cc3c(NC(=O)Cc4ccc5c(c4)OCO5)cccc3C2=O)C(=O)N1 (configuration not stated)	4.20			pIC50 (HEK-293T): 2.84; Activity (MDA-MB-231): inactive
COc1cc2c(cc1OC)C(=O)C(CC1CCN(C(=O)/C=C/C=C/c3ccc4c(c3)OCO4)CC1)C2 (configuration not stated)	4.49	3.91	4.21	
COc1cc2c(cc1OC)C(=O)C(CC1CCN(C(=O)/C=C/c3ccc4c(c3)OCO4)CC1)C2 (configuration not stated)	4.73	3.98	5.10	
Cc1cn(-c2cc(NC(=O)Cc3ccc4c(c3)OCO4)cc(C(F)(F)F)c2)cn1	5.11	4.33	4.72	
COc1cc2c(cc1OC)C(=O)C(CC1CCN(C(=O)c3ccc4c(c3)OCO4)CC1)C2 (configuration not stated)	4.60	4.09	3.39	
O=C(/C=C/C=C/c1ccc2c(c1)OCO2)N1CCCCC1 [PIPERINE]	4.35	3.62	4.37	
COc1cc2c(cc1OC)C(=O)C(CC1CCN(C(=O)/C=C/c3cc4c(cc3Br)OCO4)CC1)C2 (configuration not stated)	4.53	4.82		Activity (HEK-293T): Non-Toxic
O=C1CCC(N2Cc3c(NC(=O)c4ccc5c(c4)OCO5)cccc3C2=O)C(=O)N1 (configuration not stated)	4.94	3.55	3.20	
